US20100144736A1, “NOVEL BIPHENYL THIO-UREA DERIVATIVES USEFUL AS POTASSIUM CHANNEL MODULATORS” (NeuroSearch A/S, priority 2006, published 2010)

Molecular target: T1, BK channels heterologously expressed in Xenopus laevis oocytes (Homo sapiens, UniProt Q12791)
T1 construct: expressed in transfected cells; host or cells: Xenopus laevis oocytes
Assay: BK channel opening activity, two-electrode voltage clamp in Xenopus laevis oocytes
Format: cell-based
Settings: Compound added in increasing concentrations, 1, 3 and 10 μM; step from −40 mV to +30 mV; FIG. 1
Method: The electrical current through the BK channel is measured conventional two-electrode voltage clamp. BK current is activated by repeated step protocols. In brief, this protocol goes from a resting membrane potential of −40 mV lasting for 5 s to a depolarised step to +30 mV lasting for 1 s. The protocol was repeated continuously.
Having reached a stable current level, Compound 1 was added in increasing concentrations. Between each application compound was washed out until baseline current activity was obtained.

T1 sequence (Q12791 whole entry): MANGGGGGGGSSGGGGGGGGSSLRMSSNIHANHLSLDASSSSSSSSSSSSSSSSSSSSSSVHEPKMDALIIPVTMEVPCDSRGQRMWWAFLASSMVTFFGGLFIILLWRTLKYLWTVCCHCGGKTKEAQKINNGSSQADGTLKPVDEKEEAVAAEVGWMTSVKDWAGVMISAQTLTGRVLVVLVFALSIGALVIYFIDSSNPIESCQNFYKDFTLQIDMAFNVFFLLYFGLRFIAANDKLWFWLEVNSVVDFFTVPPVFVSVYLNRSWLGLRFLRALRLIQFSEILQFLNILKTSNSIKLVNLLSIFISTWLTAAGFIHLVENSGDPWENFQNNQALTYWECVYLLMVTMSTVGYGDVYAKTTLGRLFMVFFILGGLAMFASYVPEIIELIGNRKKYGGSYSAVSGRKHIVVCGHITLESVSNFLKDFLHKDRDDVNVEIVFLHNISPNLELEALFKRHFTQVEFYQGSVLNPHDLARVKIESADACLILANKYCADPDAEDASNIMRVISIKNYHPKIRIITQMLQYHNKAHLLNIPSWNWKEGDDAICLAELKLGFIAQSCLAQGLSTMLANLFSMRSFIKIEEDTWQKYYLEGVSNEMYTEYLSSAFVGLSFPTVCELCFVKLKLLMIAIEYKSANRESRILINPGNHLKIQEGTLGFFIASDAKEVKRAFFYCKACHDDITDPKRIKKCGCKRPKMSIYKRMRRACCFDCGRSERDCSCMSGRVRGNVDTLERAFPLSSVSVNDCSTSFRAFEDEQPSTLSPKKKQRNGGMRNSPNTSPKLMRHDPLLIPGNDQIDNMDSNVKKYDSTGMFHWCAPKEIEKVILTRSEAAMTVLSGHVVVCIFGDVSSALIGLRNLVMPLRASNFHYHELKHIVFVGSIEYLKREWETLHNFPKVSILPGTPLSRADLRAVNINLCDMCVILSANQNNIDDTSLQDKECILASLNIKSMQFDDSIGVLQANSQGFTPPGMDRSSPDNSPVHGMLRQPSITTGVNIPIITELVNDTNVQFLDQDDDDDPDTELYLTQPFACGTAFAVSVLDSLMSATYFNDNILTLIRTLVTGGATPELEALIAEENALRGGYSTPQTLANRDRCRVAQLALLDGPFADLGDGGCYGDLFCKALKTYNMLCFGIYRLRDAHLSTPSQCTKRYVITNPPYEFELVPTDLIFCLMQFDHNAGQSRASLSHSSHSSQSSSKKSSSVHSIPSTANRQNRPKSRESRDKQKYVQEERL

## FC(F)(F)c1cc(NC(=S)Nc2ccc(Br)cc2-c2nnn[nH]2)cc(C(F)(F)F)c1 [Compound 1, 1-(3,5-Bis-trifluoromethyl-phenyl)-3-[4-bromo-2-(1H-tetrazol-5-yl)-phenyl]-thiourea]
  current activated by depolarisation (BK current): marked increase
